Experiment in all cases: NCI anticancer screen, dose series, 48 h
The subject of test [1] is A498 renal.
Test [2] deals with BT-549 breast.
The test system of test [3] is HT29 colon.
For test [4], the system named is LOX IMVI melanoma.
Test [5] concerns M14 melanoma.
Test [6] deals with MALME-3M melanoma.
Test [7] deals with MDA-MB-231 breast.
Test [8] relates to MDA-MB-435.
The subject of test [9] is NCI-H23 lung.
In test [10] the test system is NCI-H522 lung.

Experimental findings from PubChem BioAssay (NCI) are described below.

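Briefly, cells in 96-well plates were exposed to five compound concentrations for 48 h, and endpoints were estimated by linear interpolation. GI50 marks 50% less growth. TGI: total growth inhibition.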

As to `O=C(Nc1ccc(I)cc1)c1cc([N+](=O)[O-])ccc1O`, the GI50 in test [1] is 1.45 µM; in test [2] it was 5.36 µM; in test [3], 13.3 µM; in test [4] it was 4.44 µM; in test [5], 12.8 µM; in [6] it was 19.9 µM. Also, the GI50 is 10 µM in test [7], 6.91 µM in [8], 4.07 µM in [9] and 2.92 µM in test [10]. The TGI in test [1] is 5.17 µM; in test [2], 27.1 µM; in test [3], 89.7 µM; in test [4], 61 µM; in test [5] it was 62.8 µM; in test [6], 70.3 µM. For the same compound, the TGI is 53.1 µM in [7], over 100 µM in test [8], over 100 µM in test [9] and 15.9 µM in test [10].
Regarding `Cn1ccnc1C(=O)/C=C/c1ccc(CC(=O)Nc2ccc(Br)cc2)cc1`, the GI50 in test [1] was 4.35 µM; in [2], 2.93 µM; in test [3], 4.05 µM; in [4] it was 2.07 µM; in test [5], 2.63 µM; in test [6] it was 4.04 µM. Besides, the GI50 was 4.78 µM in [7], 4.37 µM in test [8], 2.75 µM in [9] and 3.83 µM in test [10]. The TGI in test [1] came to 12.6 µM; in test [2], 6.43 µM; in test [3], 9.96 µM; in test [4] it was 4.28 µM; in [5], 6.07 µM; in test [6] it was 10.8 µM. Further, the TGI came to 15.6 µM in [7], 14.8 µM in [8], 7.1 µM in test [9] and 8.25 µM in test [10].
On to `C=C(CNCCO)[C@@H]1CC[C@]2(CO)CC[C@]3(C)[C@H](CC[C@@H]4[C@@]5(C)CCC(N)C(C)(C)[C@@H]5CC[C@]43C)[C@@H]12` (stereo partly specified), for which the GI50 in test [1] is 9.55 µM; in [2], 2.07 µM; in test [3], 1.86 µM; in test [4], 1.7 µM; in [5], 2.05 µM; in test [6], 1.58 µM. In addition, the GI50 was 1.52 µM in test [7], 1.72 µM in test [8], 4.66 µM in test [9] and 1.93 µM in test [10]. Further, the TGI in [1] came out at 22.6 µM; in [2], 4.9 µM; in [3], 3.89 µM; in [4] it was 3.2 µM; in [5], 3.97 µM; in [6], 3.11 µM. Further, the TGI in test [7] was found to be 3.14 µM; in test [8], 3.3 µM; in test [9] it was 17.6 µM; in [10] it was 3.7 µM.
For the compound `CC(=O)[O][Hg][c]1c(N)c(C)cc(C)c1F`, the GI50 in [1] is 5.35 µM; in test [2] it was 2.22 µM; in test [4] it was 0.833 µM; in test [5], 1.55 µM; in [6], 1.63 µM; in [7], 1.17 µM. Further, the figures for the GI50 in [8] and in [10] were 1.48 µM and 0.167 µM, respectively. The TGI in test [1] came to 15.8 µM; in test [2], 5.29 µM; in test [4], 2.54 µM; in test [5], 3.29 µM; in [6], 3.25 µM; in test [7], 2.64 µM. Besides, the figures for the TGI in test [8] and in test [10] were 2.96 µM and 0.344 µM, respectively.
`COc1c2ccoc2c(/C=C/C=O)c2oc(-c3ccccc3)cc(=O)c12`: the GI50 in test [1] is 7.44 µM; in test [2], 2.88 µM; in test [3], 25.1 µM; in test [4] it was 1.48 µM; in test [5], 3.32 µM; in [6], 3.57 µM. The GI50 in test [7] is 4.1 µM; in test [8], 4.83 µM; in [9], 2.44 µM; in test [10], 17.6 µM. For the same compound, the TGI in test [1] is 40.7 µM; in [2], 13.1 µM; in test [3], over 100 µM; in [4] it was 2.8 µM; in test [5] it was over 100 µM; in [6], 9.17 µM. Also, the TGI in test [7] was over 100 µM; in test [8], over 100 µM; in test [9] it was 8.08 µM; in [10], over 100 µM.
`CSCCCN(CCCSC)CCCSC`: the TGI in test [2], in test [3], in test [4], in test [5], in [7] and in [8] was over 100 µM in each case. The TGI in test [9] and in test [10] was over 100 µM in each case.
As for `COc1ccc(C2=CSc3cc(Cl)c(C)cc3S(=O)(=O)N2C(C)=O)cc1`, the GI50 was 59.5 µM in [1]; 29.9 µM in test [2]; 21 µM in test [4]; 49.1 µM in test [5]; 14.5 µM in test [7]; 28.6 µM in test [8]. Also, the GI50 in test [9] was 36.4 µM; in [10], 53.9 µM. Further, the TGI in test [1] was over 100 µM; in [2] it was over 100 µM; in [4], over 100 µM; in [5], over 100 µM; in test [7], 37.9 µM; in test [8], 87.8 µM. Moreover, the TGI in test [9] and in [10] was over 100 µM each time.
For the compound `Oc1ccc(Cl)cc1-c1cc(-c2ccccc2Cl)[nH]n1`, the GI50 in test [1] was 95.7 µM; in test [2], 36 µM; in test [3] it was 15.2 µM; in test [5] it was 25.9 µM; in [6] it was 9.76 µM; in test [7] it was 1.44 µM. The GI50 in test [8] is 8.44 µM; in [9], 4.91 µM; in test [10], 3.26 µM. Further, the TGI in test [1] was over 100 µM; in test [2], over 100 µM; in [3], over 100 µM; in [5], over 100 µM; in test [6], over 100 µM; in test [7] it was 6.29 µM. The TGI in test [8], in [9] and in test [10] was over 100 µM throughout.
In the case of `Clc1cccc(Cc2cn3cc(-c4ccccc4)nc3s2)c1Cl`, the GI50 in [2] is 88.2 µM; in [3], over 100 µM; in test [4] it was 14.5 µM; in [5], over 100 µM; in [6], 56.2 µM; in test [7], 3.08 µM. In addition, the GI50 in test [8] was 3.59 µM; in test [9] it was 60.7 µM; in test [10] it was 19.4 µM. Moreover, the TGI in [2], in test [3], in [4], in test [5], in test [6] and in test [7] was over 100 µM throughout. For the same compound, the TGI in test [8], in test [9] and in test [10] was over 100 µM throughout.
